Results from US20220064604A1, “SYSTEMIC SCLEROSIS DISEASE MODEL AND USE THEREOF” (YiPSCELL Inc., priority 2018, published 2022).
Starred links: 1 amine or outer side, 2 acyl side, 3 side chain; linkers in the order of their positions; H or OH if unused. Positions of bridges follow the written chain, without caps; N, C: chain ends. Non-standard residues stand in square brackets, D forms with d. Residues, ends and D or L forms follow the SMILES beside them. Chains are numbered I, II in the order given. Actinocin(9to1) = Cc1c2oc3c(C)ccc(C(=O)[*:1])c3nc-2c(C(=O)[*:2])c(N)c1=O; NMeV = CN[C@H](C(=O)O)C(C)C; Sar = CNCC(=O)O

Legend:
total collagen in iPSC-F = assay: Total collagen expression, hydroxyproline assay, in iPSC-derived fibroblasts; type: cell-based, human; details: for expression of the total collagen: 5 μM, SSc patient iPSC-derived fibroblasts, vs untreated
Description: (§1) The cells or cell culture media were harvested, mixed with hydrochloric acid at a ratio of 1:1, and cultured at 120° C. for 3 hours. After culture, 5 mg of activated charcoal was added, followed by centrifugation at 13,000×g for 5 minutes to separate only the supernatant. The harvested supernatant was transferred to a 96-well plate and dried completely at 60° C. The Chloramine T/Oxidation Buffer mixture was added to the well, and it was cultured for 5 minutes at room temperature. After adding the diluted DMAB Reagent and incubating at 60° C. for 90 minutes, absorbance at 560 nm was measured.
as §1, with “For collagen expression, the hydroxyproline assay kit (Sigma) was used. The cells” for “The cells”, “1:1, and incubated at 120°” for “1:1, and cultured at 120°”, “hours. After incubation, 5 mg” for “hours. After culture, 5 mg”, “it was incubated for 5” for “it was cultured for 5”
For collagen expression, the hydroxyproline assay kit (Sigma) was used. The cells or cell culture media were harvested, mixed with hydrochloric acid at a ratio of 1:1, and incubated at 120° C. for 3 hours. After incubation, 5 mg of activated charcoal was added, followed by centrifugation at 13,000×g for 5 minutes to separate only the supernatant. […] After adding the diluted DMAB Reagent and incubating at 60° C. for 90 minutes, absorbance at 560 nm was measured.
After 1 day, pirfenidone and nintedanib, which are drugs approved as anti-fibrotic drugs, were treated at a concentration of 5 μM. Collagen expression was measured using the hydroxyproline assay kit (Sigma). […] After adding the diluted DMAB Reagent and incubating at 60° C. for 90 minutes, absorbance was measured at 560 nm to measure the total amount of collagen.

ACTA2 and COL1A1 = assay: Fibrosis marker gene expression (qRT-PCR) in SSc iPSC-derived fibroblasts; type: cell-based, human; details: 5 μM; SSc patient iPSC-derived fibroblasts; vs untreated
Description: In order to verify the fibrosis model of the fibroblasts derived from the induced pluripotent stem cells of patients with systemic sclerosis formed in Example 3 above, 2.5×10^5 fibroblasts were plated on a 6-well plate, and maintained and expanded for 1 day. One day later, pirfenidone and nintedanib were treated at a concentration of 5 μM. The total RNA was extracted using Trizol, and cDNA was synthesized using the Revert Aid™ First Strand cDNA Synthesis kit. The qRT-PCR was performed on the synthesized cDNA using LightCycle 480 SYBR Green. The primers used are presented in [Table 3]. All of the experiments were repeated 3 times, and the threshold of the average cycle was used to calculate gene expression for averaging GAPDH as an internal control.

[1] = test system: fibroblasts derived from the induced pluripotent stem cells; assay: Cell proliferation of iPSC-derived fibroblasts, Cell Counting Kit-8 (FDA-approved drug screening); type: cell-based, human; details: absorbance at 450 nm
Description: For cell proliferation, absorbance was measured at 450 nm by using the Cell Counting Kit-8 (Dojindo).
The plated cells were treated with about 800 FDA-approved drugs to screen for drugs that reduce the proliferation (FIG. 6A). For cell proliferation, absorbance was measured at 450 nm by using the Cell Counting Kit-8 (Dojindo) (FIG. 6B).

α-SMA = α-SMA expression by western blot in iPSC-derived fibroblasts; type: cell-based, human
Description: In order to verify the antifibrotic effect of dactinomycin and raloxifene, which are the drugs selected through the above experiment, 1×10^6 fibroblasts were plated on a 100 mm culture dish, treated with the target drugs, and maintained and expanded. The protein was extracted using the RIPA buffer (Sigma) to analyze the expression of fibrosis factors, and the protein concentration was quantified by the Bradford assay. The same concentration of the protein was loaded on 10% SDS-PAGE, and the protein was transferred to polyvinylidene difluoride membranes. […] After washing with PBS containing 0.1% Tween-20, the peroxidase-linked IgG secondary antibody was incubated, and protein expression was measured using the ECL kit.
In order to confirm the reduction effect of the expression of the fibrosis factors of raloxifene, which is the drug selected in Example 6, raloxifene was treated by concentration, and the expression of α-SMA was confirmed. […] The protein was extracted using the RIPA buffer (Sigma) to analyze the expression of fibrosis factors, and the protein concentration was quantified by the Bradford assay. […] After washing with PBS containing 0.1% Tween-20, the peroxidase-linked IgG secondary antibody was incubated, and protein expression was measured using the ECL kit.

iPSC-F = assay: Wound healing assay in iPSC-F with TGF-b induced fibrosis; type: cell-based, human
Description: The fibroblasts were plated on a 6-well plate and maintained and expanded. When the cells filled the plate, the plate was scratched, and fibrosis was induced by TGF-b and it was treated with the drug raloxifene.

3D fibroblast layer = assay: Thickness of 3D fibroblast layer with TGF-b induced fibrosis; type: cell-based, human
Text: A 3D fibroblast layer was produced using the fibroblasts formed in Example 3 above. 2×10^5 fibroblasts after 28 days of differentiation were harvested and mixed with collagen 1 and plated on a 6-well-sized Transwell plate. It was replaced once every 2 days with Fibroblast Differentiation Culture Medium 1 for 5 days (FIG. 5F).
In order to confirm the effect of reducing the skin thickness by raloxifene, which is the drug selected in Example 6 above, fibrosis was induced in the 3D fibroblast layer with TGF-b, and it was treated with the drug raloxifene.

[2] = test system: COL1A1, COL3A1, and ACTA2; assay: Fibrosis factor gene expression (qRT-PCR) in skin tissue of bleomycin model; type: in vivo, mouse; details: subcutaneous for 21 days
Description: (§2) A systemic sclerosis model was established by dissolving Bleocin (Dong-A ST, 15 mg) in PBS and injecting it daily into the nape of mice. Raloxifene and bazedoxifene were injected subcutaneously for 21 days from 3 days after the injection of Bleocin (FIG. 8A).
ECM gene expression was confirmed to verify the antifibrotic efficacy of raloxifene in the bleomycin model established in Example 8-1 above. After harvesting the skin tissue, the total RNA was extracted using Trizol, and cDNA was synthesized using the Revert Aid™ First Strand cDNA Synthesis kit. The qRT-PCR was performed on the synthesized cDNA using LightCycle 480 SYBR Green. The primers used are presented in [Table 4]. All of the experiments were repeated three times, and the threshold of the average cycle was used to calculate gene expression for averaging GAPDH as an internal control.

bleomycin mouse model [3] = assay: Thickness of skin tissue in bleomycin model (histology); type: in vivo
Description: as §2
In order to verify the antifibrotic efficacy of raloxifene in the bleomycin model established in Example 8-1 above, the skin tissue was harvested and paraffin blocks were prepared. The harvested skin tissue was fixed in 4% formaldehyde. The tissue was maintained in the running water for a day to remove the remaining fixative. Dehydration was carried out sequentially while increasing the concentration of an ethanol solution. After dehydration, a transparent process was performed with xylene, followed by paraffin penetration. The next day, the tissue was fixed to a paraffin block, and a tissue section was obtained using a microtome. The slide was dried at 60° C. for 1 hour. After the slide was deparaffinized with xylene, it was rehydrated while decreasing the concentration of the ethanol solution and washed with tap water, and staining was performed.
For hematoxylin and eosin (H&E) staining, sections were incubated in the Harris hematoxylin solution for 10 minutes. The slide was washed, decolorized in an ethanol solution containing 1% HCl, and then neutralized in 0.2% ammonia water. […]

bleomycin mouse model [4] = assay: Pulmonary fibrosis in bleomycin model (Masson Trichrome staining); type: in vivo
Description: A systemic sclerosis model was established by dissolving Bleocin (Dong-A ST, 15 mg) in PBS and injecting it daily into the nape of mice. Raloxifene and bazedoxifene were injected subcutaneously for 21 days from 3 days after the injection of Bleocin (FIG. 8A). […] For Masson Trichrome staining, the slide was mordated overnight in the Bouin solution. After washing the slide, nuclei were stained for 10 minutes with Weigert Iron Hematoxylin. The cytoplasm was stained for 5 minutes with Biebrich scarlet-acid fuchsin. It was decolorized for 10 minutes with a solution in which phosphotungstic acid, phosphomolybdic acid, and DW were mixed at a ratio of 1:1:2. The collagenic fiber was stained by maintaining in a 2% aniline blue solution for 5 minutes. The slide was washed and subjected to a dehydration process while increasing the concentration of ethanol. The remaining ethanol was removed with xylene, and it was sealed using the VectaMount Permanent Mounting Medium.

[5] = raloxifene treated by concentration

SMILES: Cc1ccc(=O)n(-c2ccccc2)c1 [pirfenidone]
- expression of the total collagen (total collagen in iPSC-F): significantly reduced
- gene expression of ACTA2 (ACTA2 and COL1A1): significantly reduced
- gene expression of COL1A1 (ACTA2 and COL1A1): significantly reduced

SMILES: O=C(c1ccc(OCCN2CCCCC2)cc1)c1c(-c2ccc(O)cc2)sc2cc(O)ccc12 [raloxifene]
- cell proliferation [1]: decreased
- expression of the total collagen, treated by concentration (total collagen in iPSC-F; [5]): reduced as the treatment concentration of raloxifene was increased
- expression of α-SMA (α-SMA; iPSC-F of patients with systemic sclerosis): effectively decreased the expression of α-SMA compared to dactinomycin
- expression of α-SMA, treated by concentration (α-SMA; [5]): reduced as the treatment concentration of raloxifene was increased
- wound healing, which was increased by TGF-b (iPSC-F; wound healing assay in iPSC-F): reduced
- proliferation of the cells, which was increased by TGF-b (iPSC-F; wound healing experiment, TGF-b induced): reduced
- thickness of the 3D fibroblast layer, which was increased by TGF-b (3D fibroblast layer): reduced
- expression of ACTA2 [2]: reduced
- expression of COL1A1 [2]: reduced
- expression of COL3A1 [2]: reduced
- thickness of the skin tissue (bleomycin mouse model [3]): reduced
- lung fibrosis (bleomycin mouse model [4]): reduced

SMILES: COC(=O)c1ccc2c(c1)NC(=O)/C2=C(\Nc1ccc(N(C)C(=O)CN2CCN(C)CC2)cc1)c1ccccc1 [nintedanib]
- expression of the total collagen (total collagen in iPSC-F): significantly reduced
- gene expression of ACTA2 (ACTA2 and COL1A1): significantly reduced
- gene expression of COL1A1 (ACTA2 and COL1A1): significantly reduced

SMILES: Cc1c2oc3c(C)ccc(C(=O)N[C@@H]4C(=O)N[C@H](C(C)C)C(=O)N5CCC[C@H]5C(=O)N(C)CC(=O)N(C)[C@@H](C(C)C)C(=O)O[C@@H]4C)c3nc-2c(C(=O)N[C@@H]2C(=O)N[C@H](C(C)C)C(=O)N3CCC[C@H]3C(=O)N(C)CC(=O)N(C)[C@@H](C(C)C)C(=O)O[C@@H]2C)c(N)c1=O [dactinomycin] (I: T[dV]P[Sar][NMeV] / II: T[dV]P[Sar][NMeV]; ester I:1-I:C, II:1-II:C; linker I:N-II:N via Actinocin(9to1))
- cell proliferation [1]: decreased
